# Laboratory results reported in patent US12605407B2, “Methods to induce terminal differentiation in stem cells by interfering with DNA replication, methods of inducing pancreatic differentiation, and differentiated cells obtained thereof” (priority 2018, dated 2026).
# Tested on: pancreatic progenitors
# Assay: Beta cell differentiation from human pluripotent stem cells, flow cytometry of C-peptide and NKX6.1 positive cells
# Assay type: cell-based
# Experimental: Beta cells differentiated from human pluripotent stem cell lines as described in Example 2 (Sui et al., 2018b). Indicated compounds that function as cell cycle inhibitors were added individually from day 15 to day 27 with concentration listed below:
# The DNA replication inhibitors used in this study: 0.1 μM, 0.5 μM and 1 μM Aphidicolin (A0781, Sigma-Aldrich); 2.5 μM Cisplatin (232120, EMD Millipore); 100 μM Ciprofloxacin (S2027, Selleck Chemicals); 10 μM Pyridostatin (S7444, Selleck Chemicals); 10 μM E2F Inhibitor (324461, EMD Millipore); 0.05 μM A485 (6387, Tocris); 2 μM RL5a (SML2187, Sigma-Aldrich); and 2 μM Etoposide (E55500, Research Products International). Indicated compounds were added individually from day 15 to day 27 with indicated concentration.
# The beta cell clusters were dissociated using TrypLE™ Express into single cells. Cells were fixed with 4% PFA for 10 min and followed by permeabilization at −20° C. with cold methanol for 10 min. Primary antibodies were added at a dilution of 1:100 in autoMACs Rinsing Solution (Cat. No. 130-091-222, Miltenyi Biotec) containing 0.5% BSA at 4° C. for 1 hour. Secondary antibodies were added at a dilution of 1:500 at room temperature for 1 hour. The cells were filtered with BD Falcon 12×75 mm tube with cell strainer cap (Cat. No. 352235, BD) and subsequently analyzed by flow cytometer. Data were analyzed using Flowjo software. Negative controls were performed by only adding secondary antibodies.
# Aphidicolin (APH), a DNA polymerase inhibitor, was used to inhibit DNA replication (Koundrioukoff et al., 2013). […] The insulin expressing cells were evenly distributed in the islet-like clusters with high percentage indicated by the expression of GFP, whereas some parts of the clusters in control remained GFP negative (FIG. 1D).
# [1] = APH added d15-d20, d20-d27 or d15-d27, read at day 27, versus control
structure (smiles),measurement,setting,value
"C[C@@]1(CO)[C@H](O)CC[C@@]2(C)[C@H]1CC[C@H]1C[C@@H]3C[C@@]12CC[C@]3(O)CO [APH, Aphidicolin]",variability of beta cell differentiation,,reduced
same,"percentage of c-peptide and NKX6.1 positive cells, comparison of concentrations","1 μM, d15-d27, compared with 0.1 μM and 0.5 μM",highest percentage
same,proportion of C-peptide and NKX6.1 dual positive cells,[1],increased
same,proportion of C-peptide positive cells,[1],increased
same,"differentiation toward C-peptide and NKX6.1 positive cells, comparison of treatment windows",APH added from day 15 to day 27,most effective
same,C-peptide positive cells in cultures,all n=12 independent differentiation experiments,more than 50%
same,"effectiveness to induce differentiation of pancreatic progenitors to C-peptide positive cells, comparison within panel",day 27,most effective
